Activity calls are given as the source filed them. No cut-off for these calls is given here.
Tests used:
[1] = Antiproliferative activity against human A2780/ADR cells after 72 hrs by CellTiter-Glo assay; type: functional, cell-based
[2] = Terminal half life in CD1 mouse at 10 mg/kg, iv administered as single dose by LC/MS/MS analysis; type: ADME, organism-based; parameters: dose 10 mg/kg, route intravenous; conditions: in vivo, read-out: beta t1/2 (converted)
[3] = Inhibition of PDGFR
[4] = test system: HCT-116; experiment: Antiproliferative activity against human HCT116 cells after 72 hrs by CellTiter-Glo assay; type: functional, cell-based; conditions: HCT-116, 72 h
[5] = Oral bioavailability in CD1 mouse at 10 mg/kg administered as single dose by LC/MS/MS analysis; type: ADME, organism-based; conditions: in vivo
[6] = test system: Mus musculus; experiment: Toxicity in CD1 mouse xenografted with human HCT116 cells assessed as reversible body weight loss at 30 mg/kg, iv BID administered on day 1, 2 post-implantation in weekly schedule of 3 cycles measured on day 32; conditions: in vivo
[7] = target: ALK tyrosine kinase receptor (Homo sapiens, UniProt Q9UM73); experiment: Inhibition of ALK
[8] = test system: HCT-116; experiment: Antitumor against human HCT116 cells xenografted in CD1 mouse assessed as tumor growth inhibition at 60 mg/kg, po daily administered on day 1, 2, 3 post-implantation for 2 cycles; conditions: HCT-116, po, read-out: TGI
[9] = test system: A2780; experiment: Antiproliferative activity against […] human A2780 cells after 72 hrs by CellTiter-Glo assay; type: functional, cell-based; conditions: A2780, 72 h
[10] = test system: U2OS; experiment: Induction of cell cycle arrest in human U2OS cells assessed as pSer46 TCTP signal inhibition of after 1 hr by array scan assay; type: functional, cell-based
[11] = Inhibition of casein kinase 2
[12] = Volume of distribution at steady state in CD1 mouse at 10 mg/kg, iv administered as single dose by LC/MS/MS analysis; type: ADME, organism-based; parameters: dose 10 mg/kg, route intravenous; conditions: in vivo, read-out: Vdss
[13] = target: T1, Receptor-type tyrosine-protein kinase FLT3 (Homo sapiens, UniProt P36888); experiment: Inhibition of FLT3
T1 sequence (P36888 whole entry): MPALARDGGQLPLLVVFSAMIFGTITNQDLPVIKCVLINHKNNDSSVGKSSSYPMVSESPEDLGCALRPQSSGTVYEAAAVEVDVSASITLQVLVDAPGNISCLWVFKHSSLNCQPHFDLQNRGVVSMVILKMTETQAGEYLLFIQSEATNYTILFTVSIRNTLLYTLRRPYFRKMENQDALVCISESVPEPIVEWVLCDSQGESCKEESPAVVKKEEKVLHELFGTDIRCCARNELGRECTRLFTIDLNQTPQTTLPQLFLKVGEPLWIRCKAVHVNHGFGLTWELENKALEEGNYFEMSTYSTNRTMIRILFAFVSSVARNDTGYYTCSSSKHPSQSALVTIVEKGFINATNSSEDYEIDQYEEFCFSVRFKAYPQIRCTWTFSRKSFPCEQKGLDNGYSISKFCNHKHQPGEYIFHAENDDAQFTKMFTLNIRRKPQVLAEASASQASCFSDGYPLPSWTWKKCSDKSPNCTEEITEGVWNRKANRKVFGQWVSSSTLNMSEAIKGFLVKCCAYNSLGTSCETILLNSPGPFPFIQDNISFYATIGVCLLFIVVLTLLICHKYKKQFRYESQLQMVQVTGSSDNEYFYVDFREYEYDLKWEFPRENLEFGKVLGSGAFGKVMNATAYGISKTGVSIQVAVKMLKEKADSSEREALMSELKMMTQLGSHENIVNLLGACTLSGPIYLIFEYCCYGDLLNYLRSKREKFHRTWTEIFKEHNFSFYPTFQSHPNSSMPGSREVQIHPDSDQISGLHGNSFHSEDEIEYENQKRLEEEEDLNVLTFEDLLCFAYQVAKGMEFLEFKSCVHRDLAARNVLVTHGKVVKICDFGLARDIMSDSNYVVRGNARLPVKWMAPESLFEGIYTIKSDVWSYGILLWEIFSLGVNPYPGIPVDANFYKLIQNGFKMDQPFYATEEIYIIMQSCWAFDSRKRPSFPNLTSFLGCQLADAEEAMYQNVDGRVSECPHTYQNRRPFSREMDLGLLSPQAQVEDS

[14] = test system: Mus musculus; experiment: Toxicity in CD1 mouse xenografted with human HCT116 cells assessed as reversible body weight loss at 60 mg/kg, po daily administered on day 1, 2, 3 post-implantation in weekly schedule of 2 cycles; conditions: in vivo
[15] = Permeability of the compound by PAMPA; type: ADME
[16] = test system: HCT-116; experiment: Induction of apoptosis in human HCT116 cells assessed as induction of PARP cleavage at 0.005 to 0.5 uM after 24 hrs; type: functional, cell-based
[17] = target: Serine/threonine-protein kinase Nek6 (Homo sapiens, UniProt Q9HC98); experiment: Inhibition of NEK6
[18] = Terminal half life in CD1 mouse at 10 mg/kg, po administered as single dose by LC/MS/MS analysis; type: ADME, organism-based; parameters: dose 10 mg/kg, route oral; conditions: in vivo, read-out: beta t1/2 (converted)
[19] = test system: HT-29; experiment: Antiproliferative activity against human HT-29 cells after 72 hrs by CellTiter-Glo assay; type: functional, cell-based; conditions: HT-29, 72 h
[20] = test system: HCT-116; experiment: Antitumor against human HCT116 cells xenografted in CD1 mouse assessed as tumor growth inhibition at 30 mg/kg, iv BID administered on day 1, 2 post-implantation in weekly schedule of 3 cycles measured on day 32; type: functional; conditions: read-out: TGI
[21] = test system: HL-60; experiment: Antiproliferative activity against human HL60 cells after 72 hrs by CellTiter-Glo assay; type: functional, cell-based; conditions: HL-60, 72 h
[22] = test system: A2780; experiment: Induction of cell cycle arrest in human A2780 cells assessed as accumulation at G2/M phase at 0.005 to 0.5 uM after 24 hrs; type: functional, cell-based
[23] = Antiproliferative activity against human KU812 cells after 72 hrs by CellTiter-Glo assay; type: functional, cell-based; conditions: KU812, 72 h
[24] = test system: NCI-H1993; experiment: Antiproliferative activity against human NCI-H1993 cells after 72 hrs by CellTiter-Glo assay; type: functional, cell-based; conditions: NCI-H1993, 72 h
[25] = test system: A2780; experiment: Induction of apoptosis in human A2780 cells assessed as induction of PARP cleavage at 0.005 to 0.5 uM after 24 hrs
[26] = Solubility of the compound at 105 Tween 80; type: physicochemical
[27] = AUC (0 to infinity) in CD1 mouse at 10 mg/kg, iv administered as single dose by LC/MS/MS analysis; type: ADME, organism-based; parameters: time infinity, dose 10 mg/kg, route intravenous; conditions: plasma
[28] = test system: A2780; experiment: cells; conditions: Homo sapiens, A2780, 72 h
[29] = test system: HCT-116; experiment: Induction of cell cycle arrest in human HCT116 cells assessed as accumulation at G2/M phase at 0.005 to 0.5 uM after 24 hrs; type: functional, cell-based
[30] = test system: U2OS; experiment: Induction of cell cycle arrest in human U2OS cells assessed as accumulation of pSer10 histone H3-positive cells at 260 nM after 24 hrs by array scan assay

Serine/threonine-protein kinase Nek6, sequence (Q9HC98 whole entry): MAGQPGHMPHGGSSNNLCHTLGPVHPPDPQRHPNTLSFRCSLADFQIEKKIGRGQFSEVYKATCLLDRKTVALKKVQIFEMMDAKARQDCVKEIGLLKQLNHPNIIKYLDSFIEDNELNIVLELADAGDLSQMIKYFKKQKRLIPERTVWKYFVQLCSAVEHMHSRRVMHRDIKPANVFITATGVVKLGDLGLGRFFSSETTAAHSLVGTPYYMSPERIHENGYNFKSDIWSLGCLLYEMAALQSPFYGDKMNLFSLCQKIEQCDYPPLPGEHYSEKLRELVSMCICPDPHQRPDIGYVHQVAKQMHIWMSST
ALK tyrosine kinase receptor, sequence (Q9UM73 whole entry): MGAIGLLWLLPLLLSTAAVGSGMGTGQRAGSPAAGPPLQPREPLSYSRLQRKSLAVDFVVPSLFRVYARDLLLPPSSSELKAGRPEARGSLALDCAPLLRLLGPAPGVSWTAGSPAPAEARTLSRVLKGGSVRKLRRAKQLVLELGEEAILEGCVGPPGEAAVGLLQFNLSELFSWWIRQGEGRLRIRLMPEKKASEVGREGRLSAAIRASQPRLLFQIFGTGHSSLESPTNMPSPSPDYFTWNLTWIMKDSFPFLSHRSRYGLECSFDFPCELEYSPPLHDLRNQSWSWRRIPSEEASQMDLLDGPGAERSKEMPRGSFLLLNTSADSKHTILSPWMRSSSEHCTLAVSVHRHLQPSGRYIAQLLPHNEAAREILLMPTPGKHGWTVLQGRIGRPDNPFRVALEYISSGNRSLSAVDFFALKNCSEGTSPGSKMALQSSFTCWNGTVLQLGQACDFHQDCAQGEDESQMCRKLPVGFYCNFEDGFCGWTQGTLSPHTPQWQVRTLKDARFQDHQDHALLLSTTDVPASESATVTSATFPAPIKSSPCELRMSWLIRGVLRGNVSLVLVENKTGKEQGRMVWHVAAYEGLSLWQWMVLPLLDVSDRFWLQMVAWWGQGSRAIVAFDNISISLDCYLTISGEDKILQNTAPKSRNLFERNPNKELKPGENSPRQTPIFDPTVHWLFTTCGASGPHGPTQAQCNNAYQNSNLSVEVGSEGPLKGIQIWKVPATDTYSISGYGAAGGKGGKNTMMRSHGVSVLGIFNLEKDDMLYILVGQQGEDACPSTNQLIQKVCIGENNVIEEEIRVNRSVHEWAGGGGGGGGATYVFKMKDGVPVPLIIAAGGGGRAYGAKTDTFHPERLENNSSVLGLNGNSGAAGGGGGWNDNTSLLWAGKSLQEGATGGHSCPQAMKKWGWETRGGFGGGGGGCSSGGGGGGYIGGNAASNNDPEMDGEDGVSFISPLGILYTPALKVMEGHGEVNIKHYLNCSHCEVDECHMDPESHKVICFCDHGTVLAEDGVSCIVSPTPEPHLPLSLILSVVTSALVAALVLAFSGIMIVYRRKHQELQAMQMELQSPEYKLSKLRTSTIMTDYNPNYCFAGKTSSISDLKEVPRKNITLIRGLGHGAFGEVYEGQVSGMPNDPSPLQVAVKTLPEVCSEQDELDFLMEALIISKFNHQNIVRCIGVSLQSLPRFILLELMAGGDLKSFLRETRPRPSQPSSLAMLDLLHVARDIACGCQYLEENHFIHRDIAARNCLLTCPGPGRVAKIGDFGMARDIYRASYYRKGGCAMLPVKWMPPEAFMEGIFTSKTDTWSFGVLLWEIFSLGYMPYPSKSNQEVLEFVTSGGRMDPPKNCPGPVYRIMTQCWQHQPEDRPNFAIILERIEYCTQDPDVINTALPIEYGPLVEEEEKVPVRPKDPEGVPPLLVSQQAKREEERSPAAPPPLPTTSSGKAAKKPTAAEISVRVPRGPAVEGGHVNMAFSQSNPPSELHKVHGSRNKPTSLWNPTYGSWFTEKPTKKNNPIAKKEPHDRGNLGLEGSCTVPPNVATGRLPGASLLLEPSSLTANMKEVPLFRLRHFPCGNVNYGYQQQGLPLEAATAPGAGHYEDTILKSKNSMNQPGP

With CN1CCN(c2ccc(OC(F)(F)F)c(Nc3ncc4c(n3)-c3c(c(C(N)=O)nn3C)CC4)c2)CC1 the IC50 [1] was 0.051 µM, the half-life [2] was 0.92 h and the IC50 [3] was over 10 µM. For the same molecule, the IC50 [4] was 0.041 µM, the bioavailability [5] was 21% and the Activity [6] was 14%. The IC50 [7] was over 10 µM, the inhibition in vivo at 60 mg/kg [8] was 70% and the IC50 [9] was 0.021 µM. The IC50 [10] was 0.095 µM, the IC50 [11] was 0.14 µM and the Vd [12] was 3.39 L/kg. For the same molecule, the IC50 [13] was 1.52 µM, the Activity [14] was 13% and the Papp [15] was 50 ×10⁻⁶ cm/s. The Activity [16] was “Active”, the IC50 [17] was 1.66 µM and the half-life [18] was 1.44 h. For the same molecule, the IC50 [19] was 0.008 µM, the inhibition in vivo at 30 mg/kg [20] was 81% and the IC50 [21] was 0.016 µM. The Activity [22] was “Active”, the IC50 [23] was 0.002 µM and the IC50 [24] was 0.195 µM. The Activity [25] was “Active”, the solubility [26] was over 3200 µg/mL and the AUC(0-inf) [27] was 4.97 µM·h. The IC50 [28] was 0.021 µM, the Activity [29] was “Active” and the Activity [30] was 20%.

— ChEMBL document CHEMBL1268971, “4,5-Dihydro-1H-pyrazolo[4,3-h]quinazolines as potent and selective Polo-like kinase 1 (PLK1) inhibitors” (Bioorg Med Chem Lett, 2010)
